In the NIST ThermoML archive (doi:10.1016/j.tca.2006.03.023) one finds mass density data, which are given here for 2 molecules.

± gives the expanded uncertainty stated by the source.

The conditions of this data set: 298 K; 101.33 kPa; Crystal; X-ray diffraction.

The term mass density denotes the mass of a sample divided by its volume. Take `O=P([O-])([O-])[O-].[Eu+3]` [europium phosphate]: the mass density is recorded as 1476 ± 2 kg/m3.
In the case of `O=P([O-])([O-])[O-].[Sm+3]` [samarium phosphate] it was 1428 ± 2 kg/m3.
